Experimental findings from patent publication US7829665B2 (priority 2005, dated 2010) are described below.

This assay addresses T1, full-length NS3/NS4A-2 (HCV NS3 protease) (Hepatitis C virus genotype 1a, UniProt P27958).
T1 construct: Recombinant E. coli or Baculovirus full-length NS3 was diluted to 3.33 μM with assay buffer; made in house; host or cells: E. coli or baculovirus (BV) expression system
Description: NS3-NS4 protease assay / NS3 inhibition assay (RETS1 substrate, fluorescence kinetic read). The format is biochemical. The conditions noted are these: recombinant E. coli or Baculovirus full-length NS3 with NS4A-2; read-out: NS3-NS4 IC50. The procedure: NS3 complex formation with NS4A-2.
Recombinant E. coli or Baculovirus full-length NS3 was diluted to 3.33 μM with assay buffer and transferred material to an eppendorf tube and place in water bath in 4° C. refrigerator. The appropriate amount of NS4A-2 to 8.3 mM in assay buffer was added to equal the volume of NS3 in step 2.1.1 (conversion factor—3.8 mg/272 μL assay buffer). The material was transferred to an eppendorf tube and place in water bath in 4° C. refrigerator.
After equilibration to 4° C., equal volumes of NS3 and NS4A-2 solutions were combined in an eppendorf tube, mix gently with a manual pipettor, and incubate mixture for 15 minutes in the 4° C. water bath. Final concentrations in the mixture are 1.67 μM NS3, 4.15 mM NS4A-2 (2485-fold molar excess NS4A-2).
After 15 minutes at 4° C., the NS3/NS4A-2 eppendorf tube was removed and place it in a room temperature water bath for 10 minutes. NS3/NS4A-2 was alliquoted at appropriate volumes and store at −80° C. (E. coli NS3 run at 2 nM in assay, aliquot at 25 μL. BV NS3 run at 3 nM in assay, aliquot at 30 μL).
Sample compounds were dissolved to 10 mM in DMSO then diluted to 2.5 mM (1:4) in DMSO. Typically, compounds were added to an assay plate at 2.5 mM concentration, yielding upon dilution a starting concentration of 50 microM in the assay inhibition curve. Compounds were serial diluted in assay buffer to provide test solutions at lower concentrations.
The E. coli. NS3/NS4A-2 was diluted to 4 nM NS3 (1:417.5 of 1.67 μM stock−18 μL 1.67 μM stock+7497 μL assay buffer). The BV NS3/NS4A-2 was diluted to 6 nM NS3 (1:278.3 of 1.67 μM stock−24 μL 1.67 μM stock+6655 μL assay buffer). Using the manual multichannel pipettor, careful not to introduce bubbles into the plate, add 50 μL assay buffer to wells A01-H01 of a black Costar 96-well polypropylene storage plate.
Using the manual multichannel pipettor, careful not to introduce bubbles into the plate, add 50 μL of diluted NS3/NS4A-2 from step 2.2.6 to wells A02-H12 of plate in step 2.2.7. Using the manual multichannel pipettor, careful not to introduce bubbles into the plate, transfer 25 μL of the wells in drug dilution plate in step 2.2.5 to corresponding wells in assay plate in step 2.2.8. Change tips on multichannel pipettor for each row of compounds transferred. Using the manual multichannel pipettor, careful not to introduce bubbles into the plate, mix the wells from the assay plate in step 2.2.9 by aspirating and dispensing 35 μL of the 75 μL in each well five times. Change tips on multichannel pipettor for each row of wells mixed. Cover plate with a polystyrene plate lid and pre-incubate the plate from step 2.2.10 containing NS3 protease and sample compounds 10 minutes at room temperature. While plate from step 2.2.11 is pre-incubating, dilute RETS1 substrate in a 15 mL polypropylene centrifuge tube. Dilute RETS1 substrate to 8 μM (1:80.75 of 646 μM stock−65 μL 646 μM stock+5184 μL assay buffer).
After the plate in step is done pre-incubating, and using the manual multichannel, add 25 μL of substrate to all wells on the plate. Quickly mix the plate as in step 2.2.10, mixing 65 μL of the 100 μL in the wells.
Read the plate in kinetic mode on the Molecular Devices SpectraMax Gemini XS plate reader. Reader settings: Read time: 30 minutes, Interval: 36 seconds, Reads: 51, Excitation λ: 335 nm, Emission λ: 495 nm, cutoff: 475 nm, Automix: off, Calibrate: once, PMT: high, Reads/well: 6, Vmax pts: 21 or 28/51 depending on length of linearity of reaction
IC50 s are determined using a four parameter curve fit equation, and converted to Ki's using the following Km's: • Full-length E. coli NS3—2.03 μM • Full-length BV NS3—1.74 μM where Ki=IC50/(1+[S]/Km)) • Quantitation by ELISA of the selectable marker protein, Neomycin phosphotransferase II (NPTII) in the HCV Sub-Genomic Replicon, GS4.3

Some results are limits rather than exact numbers.

T1 sequence (P27958 1027-1657): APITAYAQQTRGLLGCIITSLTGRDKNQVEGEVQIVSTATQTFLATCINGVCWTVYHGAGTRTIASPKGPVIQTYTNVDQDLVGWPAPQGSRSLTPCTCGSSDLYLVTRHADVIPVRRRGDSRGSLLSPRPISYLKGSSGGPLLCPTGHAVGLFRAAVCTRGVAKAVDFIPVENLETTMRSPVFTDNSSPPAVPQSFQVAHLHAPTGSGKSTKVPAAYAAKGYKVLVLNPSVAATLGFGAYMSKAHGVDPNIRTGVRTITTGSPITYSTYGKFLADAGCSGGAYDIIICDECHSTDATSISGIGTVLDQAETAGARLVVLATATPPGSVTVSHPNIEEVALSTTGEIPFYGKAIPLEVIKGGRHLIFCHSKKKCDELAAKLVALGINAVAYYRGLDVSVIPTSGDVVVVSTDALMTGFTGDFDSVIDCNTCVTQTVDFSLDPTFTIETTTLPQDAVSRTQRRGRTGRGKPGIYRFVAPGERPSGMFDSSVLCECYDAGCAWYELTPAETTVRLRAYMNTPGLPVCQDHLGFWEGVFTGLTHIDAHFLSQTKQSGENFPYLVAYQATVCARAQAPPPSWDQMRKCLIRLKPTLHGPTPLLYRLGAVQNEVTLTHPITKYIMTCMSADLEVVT

Take `CC(C)(C)OC(=O)N[C@H]1CCCCC/C=C\[C@@H]2C[C@@]2(C(=O)NS(=O)(=O)c2cc3ccccc3s2)NC(=O)[C@@H]2CCCN2C1=O` [Compound 307]: the concentration for half-maximal inhibition (IC50) was < 10 µM.
In the case of `C[C@H](NS(=O)(=O)NC(=O)[C@@]12C[C@H]1/C=C\CCCCC[C@H](NC(=O)OC(C)(C)C)C(=O)N1CCC[C@H]1C(=O)N2)c1ccccc1` [Compound 416], the IC50 is < 10 µM.
As for `C=CCN(C)S(=O)(=O)NC(=O)[C@@]12C[C@H]1/C=C\CCCCC[C@H](NC(=O)OC(C)(C)C)C(=O)N1CCC[C@H]1C(=O)N2` [Compound 412], the IC50 is < 10 µM.
As for `CN(C)c1ccc(NS(=O)(=O)NC(=O)[C@@]23C[C@H]2/C=C\CCCCC[C@H](NC(=O)OC(C)(C)C)C(=O)N2CCC[C@H]2C(=O)N3)cc1` [Compound 2231], the figure is < 10 µM; as for `CC(C)(C)OC(=O)N[C@H]1CCCCC/C=C\[C@@H]2C[C@@]2(C(=O)NS(=O)(=O)C2CCCCC2)NC(=O)[C@@H]2CCCN2C1=O` [Compound 2121], < 1 µM; as for `CC(C)(C)CC(=O)N[C@H]1CCCCC/C=C\[C@@H]2C[C@@]2(C(=O)NS(=O)(=O)C2CC2)NC(=O)C2CCCN2C1=O` (some centres unmarked) [Compound 2141], < 10 µM.
Take `CC(C)(C)OC(=O)N[C@H]1CCCCC/C=C\[C@@H]2C[C@@]2(C(=O)NS(=O)(=O)NCc2ccncc2)NC(=O)[C@@H]2CCCN2C1=O` [Compound 426]: the IC50 was > 10 µM.
As for `CC(C)(C)OC(=O)N[C@H]1CCN(S(=O)(=O)c2ccccc2[N+](=O)[O-])CC/C=C\[C@@H]2C[C@@]2(C(=O)NS(=O)(=O)C2CC2)NC(=O)[C@@H]2C[C@@H](OC(=O)N3Cc4cccc(F)c4C3)CN2C1=O` [Compound 1030, (2R,6S,13aS,14aR,16aS,Z)-6-(tert-butoxycarbonylamino)-14a-(cyclopropylsulfonylcarbamoyl)-9-(2-nitrophenylsulfonyl)-5,16-dioxo-1,2,3,5,6,7,8,9,10,11,13a,14,14a,15,16,16a-hexadecahydrocyclopropa(n)pyrrolo[2,1-c][1,4,9]triazacyclopentadecine-2-yl 4-fluoroisoindoline-2-carboxylate], the IC50 is < 0.1 µM.
For the compound `CCOC(=O)[C@@]12C[C@H]1/C=C\CCCCC[C@H](Nc1c(N3CCC3)c(=O)c1=O)C(=O)N1C[C@H](OC(=O)N3Cc4cccc(F)c4C3)C[C@H]1C(=O)N2` [Compound 645], the IC50 was < 0.1 µM.
As for `C[C@H](NC(=O)O[C@@H]1C[C@H]2C(=O)N[C@]3(C(=O)O)C[C@H]3/C=C\CCCCC[C@H](NC(=O)OC(C)(C)C)C(=O)N2C1)c1ccc(F)cn1` [Compound 147], the figure is > 10 µM.
For `O=C(N[C@H]1CCCCC/C=C\[C@@H]2C[C@@]2(C(=O)NS(=O)(=O)Nc2ccc(Cl)cc2)NC(=O)[C@@H]2CCCN2C1=O)C1CC1` [Compound 428], the IC50 was < 10 µM.
As for `CCOC(=O)[C@@]12C[C@H]1/C=C\CCCCC[C@H](NC(=O)OC(C)(C)C)C(=O)N1C[C@H](OC(=O)N3Cc4ccc(OCCN5CCOCC5)cc4C3)C[C@H]1C(=O)N2` [Compound 124], the figure is < 10 µM; as for `Cc1noc(C)c1S(=O)(=O)NC(=O)[C@@]12C[C@H]1/C=C\CCCCC[C@H](NC(=O)OC1CCCC1)C(=O)N1C[C@H](OC(=O)N3CCc4ccccc4C3)C[C@H]1C(=O)N2` [Compound 187], < 0.1 µM.
As for `CC(C)N(C)S(=O)(=O)NC(=O)[C@@]12C[C@H]1/C=C\CCCCC[C@H](NC(=O)OC(C)(C)C)C(=O)N1CCC[C@H]1C(=O)N2` [Compound 401], the figure is < 10 µM; as for `CC(C)(C)OC(=O)N[C@H]1CCCCC/C=C\[C@@H]2C[C@@]2(C(=O)NS(=O)(=O)c2cccc(F)c2)NC(=O)[C@@H]2CCCN2C1=O` [Compound 2113], < 10 µM; as for `CC1CCCC(C)N1S(=O)(=O)NC(=O)[C@@]12C[C@H]1/C=C\CCCCC[C@H](NC(=O)OC(C)(C)C)C(=O)N1CCC[C@H]1C(=O)N2` (some centres unmarked) [Compound 2223], < 1 µM.
Turning to `CC(C)(C)OC(=O)N[C@H]1CCCCC/C=C\[C@@H]2C[C@@]2(CNS(=O)(=O)C2CC2)NC(=O)[C@@H]2C[C@@H](OC(=O)N3Cc4cccc(F)c4C3)CN2C1=O` [Compound 154], the IC50 is < 10 µM.

Broadly, the IC50 is the midpoint of a concentration-inhibition curve.
